Test results taken from ChEMBL document CHEMBL5131395 (Eur J Med Chem, 2022).
Values belong to the compound of their own block, whether it stands above or below them. Active and inactive are the calls of the source. The rule behind the calls is not given here.

Key:
Mus musculus [1] = assay: (§1) Antifibrotic activity against BLM induced C57BL/6J mouse lung fibrosis model assessed as improvement in lung architecture by measuring appearance of conterminous fibrotic walls at 30 to 60 mg/kg, ip pretreated with compound administered once daily for 3 days followed by BLM treatment and measured after 28 days by Masson staining based microscopic analysis; type: functional, organism-based; conditions: dose 30-60 mg/kg, time 31.0 day
[2] = AUC (0 to infinity) in rat at 60 mg/kg, po by LC-MS/MS analysis; type: ADME, organism-based; set-up: time infinity, dose 60 mg/kg, route po; conditions: in vivo
[3] = Tmax in rat at 60 mg/kg, po by LC-MS/MS analysis; type: ADME, organism-based; conditions: in vivo
[4] = Downregulation of TGF-beta expression in lung tissue of BLM induced C57BL/6J mouse lung fibrosis model assessed as fold reduction in TGF-beta expression level at 30 to 60 mg/kg, ip by qRT-PCR analysis; type: functional; conditions: dose 30-60 mg/kg
[5] = AUC (0 to t) in rat at 60 mg/kg, po by LC-MS/MS analysis; type: ADME, organism-based; set-up: dose 60 mg/kg, route po; conditions: in vivo
[6] = Cmax in rat at 60 mg/kg, po by LC-MS/MS analysis; type: ADME, organism-based; set-up: dose 60 mg/kg, route po; conditions: in vivo
[7] = Downregulation of IL-6 expression in lung tissue of BLM induced C57BL/6J mouse lung fibrosis model assessed as fold reduction in IL-6 expression level at 30 to 60 mg/kg, ip by qRT-PCR analysis; type: functional; conditions: dose 30-60 mg/kg
[8] = Cytotoxicity against human HBE cells assessed as lethal dose; type: toxicity, cell-based; conditions: HBE cells (epithelial cell line), read-out: LD50 (the source's name)
Mus musculus [9] = assay: as §1, with “of” for “of conterminous”, “lesions” for “walls”; type: functional, organism-based; conditions: dose 30-60 mg/kg, time 31.0 day
[10] = Half life in rat at 60 mg/kg, po by LC-MS/MS analysis; type: ADME, organism-based; conditions: in vivo
Mus musculus [11] = assay: Antifibrotic activity against BLM induced C57BL/6J mouse lung fibrosis model assessed as recovery of body weight at 30 to 60 mg/kg, ip pretreated with compound administered once daily for 3 days followed by BLM treatment and measured after 28 days; type: functional, organism-based; conditions: dose 30-60 mg/kg, time 31.0 day
Autotaxin = Autotaxin (Homo sapiens, UniProt Q13822); assay: Inhibition of human ATX using FS-3 as substrate preincubated for 45 mins followed by substrate addition measured every 1 min for 30 mins by fluorescence based microplate reader analysis
[12] = In vivo inhibition of ATX in lung homogenate of BLM induced C57BL/6J mouse lung fibrosis model assessed as reduction in ATX activity using FS-3 as substrate at 30 mg/kg, ip by fluorescence based microplate reader analysis (reference value: 7.78%); type: functional
Mus musculus [13] = assay: as §1, with “of” for “of conterminous”, “lesions” for “walls”, “hematoxylin and eosin” for “Masson”; type: functional, organism-based; conditions: dose 30-60 mg/kg, time 31.0 day
[14] = In vivo inhibition of ATX in BALF of BLM induced C57BL/6J mouse lung fibrosis model assessed as reduction in ATX activity using FS-3 as substrate at 30 to 60 mg/kg, ip by fluorescence based microplate reader analysis (reference value: 4.50%); type: functional, Bronchoalveolar lavage; conditions: dose 30-60 mg/kg
[15] = In vivo inhibition of ATX in lung homogenate of BLM induced C57BL/6J mouse lung fibrosis model assessed as reduction in ATX activity using FS-3 as substrate at 60 mg/kg, ip by fluorescence based microplate reader analysis (reference value: 7.78%); type: functional
Mus musculus [16] = assay: as §1, with “hematoxylin and eosin” for “Masson”; type: functional, organism-based; conditions: dose 30-60 mg/kg, time 31.0 day
[17] = Downregulation of TNF-alpha expression in lung tissue of BLM induced C57BL/6J mouse lung fibrosis model assessed as fold reduction in TNF-alpha expression level at 30 to 60 mg/kg, ip by qRT-PCR analysis; type: functional; conditions: dose 30-60 mg/kg
[18] = Clearance in rat at 60 mg/kg, po by LC-MS/MS analysis; type: ADME, organism-based; conditions: in vivo
[19] = Downregulation of TNF-alpha expression in lung tissue of BLM induced C57BL/6J mouse lung fibrosis model assessed as fold reduction in TNF-alpha expression level at 60 mg/kg, ip by qRT-PCR analysis; type: functional
Mus musculus [20] = assay: Antifibrotic activity against BLM induced C57BL/6J mouse lung fibrosis model assessed as recovery of body weight at 60 mg/kg, ip pretreated with compound administered once daily for 3 days followed by BLM treatment and measured after 28 days; type: functional, organism-based; conditions: time 31.0 day
Mus musculus [21] = assay: as §1, with “at” for “at 30 to”, “hematoxylin and eosin” for “Masson”; type: functional, organism-based; conditions: time 31.0 day
[22] = Downregulation of IL-6 expression in lung tissue of BLM induced C57BL/6J mouse lung fibrosis model assessed as fold reduction in IL-6 expression level at 60 mg/kg, ip by qRT-PCR analysis; type: functional
Mus musculus [23] = assay: as §1, with “of” for “of conterminous”, “lesions” for “walls”, “at” for “at 30 to”, “hematoxylin and eosin” for “Masson”; type: functional, organism-based; conditions: time 31.0 day
[24] = Downregulation of TGF-beta expression in lung tissue of BLM induced C57BL/6J mouse lung fibrosis model assessed as fold reduction in TGF-beta expression level at 60 mg/kg, ip by qRT-PCR analysis; type: functional
Mus musculus [25] = assay: as §1, with “of” for “of conterminous”, “lesions” for “walls”, “at” for “at 30 to”; type: functional, organism-based; conditions: time 31.0 day
Mus musculus [26] = assay: as §1, with “at” for “at 30 to”; type: functional, organism-based; conditions: time 31.0 day

SMILES: CCn1cc(NC(=O)NCc2ccc(OC)c(Cl)c2)c2cc(-c3nc(CN(CCO)CCO)cs3)ccc21
Activity (Mus musculus [1]): Active
AUC [2]: 0.68 µg·h/mL
Tmax [3]: 3.91 h
fold change (FC) [4]: 2
AUC(0-t) [5]: 0.67 µg·h/mL
Cmax [6]: 0.131 µg/mL
fold change (FC) [7]: 2
CC50 [8]: > 20 µM
Activity (Mus musculus [9]): Active
half-life [10]: 3.11 h
Activity (Mus musculus [11]): Active
IC50 (Autotaxin): 0.00217 µM
inhibition in vivo at 30 mg/kg [12]: 5.59%
Activity (Mus musculus [13]): Active
inhibition (INH) [14]: 3.23%
inhibition in vivo at 60 mg/kg [15]: 5.03%
Activity (Mus musculus [16]): Active
fold change (FC) [17]: 2

AUC [2]: 0.24 µg·h/mL
Tmax [3]: 2.67 h
AUCt [5]: 0.24 µg·h/mL
Cmax ([6]; read-out: Cmax): 0.05 µg/mL
half-life [10]: 2.56 h
CL/F [18]: 0.381 L/h/kg
SMILES: CCn1cc(NC(=O)OCc2cc(Cl)cc(Cl)c2)c2cc(-c3nc(CN4CCOCC4)cs3)ccc21

IC50 (Autotaxin): 0.03 µM
SMILES: CCn1cc(NC(=O)NCc2ccc(Cl)cc2)c2cc(-c3nc(CN(CCO)CCO)cs3)ccc21

SMILES: CCc1nc2c(C)cc(N3CCN(CC(=O)N4CC(O)C4)CC3)cn2c1N(C)c1nc(-c2ccc(F)cc2)c(C#N)s1 [ZIRITAXESTAT]
fold change (FC) [19]: 2
Activity (Mus musculus [20]): Active
Activity (Mus musculus [21]): Active
fold change (FC) [22]: 2
Activity (Mus musculus [23]): Active
fold change (FC) [24]: 2
Activity (Mus musculus [25]): Active
Activity (Mus musculus [26]): Active
inhibition in vivo at 60 mg/kg [15]: 5.54%
